Source: US8802597B2, “Herbicidal pyrimidines” (E I du Pont de Nemours and Company, priority 2003, dated 2014)
Where two headings read alike, the source gives them in different places.

Tests used:
Test in all cases: Test C pre/postemergence
Format in all cases: in vivo
[1] = test system: goosegrass (Eleusine indica); conditions: Eleusine indica, pre-emergence, Preemergence, read-out: Plant response rating, Goosegrass
Outline: (§1)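 Visual injury ratings, 0 (no effect) to 100 (complete control), made 12 to 14 days after treatment by comparison with untreated controls. Greenhouse plants received test chemical in a surfactant-containing non-phytotoxic solvent, either preemergence on planted seeds or postemergence at the 1- to 4-leaf stage.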

[2] = test system: kochia (Kochia scoparia); conditions: Bassia scoparia; for pest or weed control at 31 g/ha: 31 g ai/ha; for pest or weed control at 62 g/ha: 62 g ai/ha; for pest or weed control at 125 g/ha: 125 g ai/ha; for pest or weed control at 250 g/ha: 250 g ai/ha
Outline: as §1

[3] = test system: lambsquarters (Chenopodium album); conditions: Chenopodium album; for pest or weed control at 31 g/ha: 31 g ai/ha; for pest or weed control at 62 g/ha: 62 g ai/ha; for pest or weed control at 125 g/ha: 125 g ai/ha; for pest or weed control at 250 g/ha: 250 g ai/ha
Outline: as §1

[4] = test system: pigweed (Amaranthus retroflexus); conditions: Amaranthus retroflexus; for pest or weed control at 31 g/ha: 31 g ai/ha; for pest or weed control at 62 g/ha: 62 g ai/ha; for pest or weed control at 125 g/ha: 125 g ai/ha; for pest or weed control at 250 g/ha: 250 g ai/ha
Outline: as §1

[5] = test system: velvetleaf (Abutilon theophrasti); conditions: Abutilon theophrasti; for pest or weed control at 31 g/ha: 31 g ai/ha; for pest or weed control at 62 g/ha: 62 g ai/ha; for pest or weed control at 125 g/ha: 125 g ai/ha; for pest or weed control at 250 g/ha: 250 g ai/ha
Outline: as §1

[6] = test system: yellow nutsedge (Cyperus esculentus); conditions: Cyperus; for pest or weed control at 31 g/ha: 31 g ai/ha; for pest or weed control at 62 g/ha: 62 g ai/ha; for pest or weed control at 125 g/ha: 125 g ai/ha; for pest or weed control at 250 g/ha: 250 g ai/ha
Outline: as §1

[7] = post-emergence, Postemergence, scale 0 to 100 (0 no effect, 100 complete control), read-out: Kochia plant response rating
[8] = pre-emergence, Preemergence, scale 0 to 100, 0 no effect, 100 complete control, read-out: Plant response rating, Kochia
[9] = pre-emergence, Preemergence, scale 0 to 100, read-out: Plant response rating, Kochia
[10] = post-emergence, Postemergence, scale 0 to 100 (0 no effect, 100 complete control), read-out: Lambsquarters plant response rating
[11] = pre-emergence, Preemergence, scale 0 to 100, 0 no effect, 100 complete control, read-out: Plant response rating, Lambsquarters
[12] = pre-emergence, Preemergence, scale 0 to 100, read-out: Plant response rating, Lambsquarters
[13] = post-emergence, Postemergence, scale 0 to 100 (0 no effect, 100 complete control), read-out: Pigweed plant response rating
[14] = pre-emergence, Preemergence, scale 0 to 100, 0 no effect, 100 complete control, read-out: Plant response rating, Pigweed
[15] = pre-emergence, Preemergence, scale 0 to 100, read-out: Plant response rating, Pigweed
[16] = post-emergence, Postemergence, scale 0 to 100 (0 no effect, 100 complete control), read-out: Velvetleaf plant response rating
[17] = pre-emergence, Preemergence, scale 0 to 100, 0 no effect, 100 complete control, read-out: Plant response rating, Velvetleaf
[18] = pre-emergence, Preemergence, scale 0 to 100, read-out: Plant response rating, Velvetleaf
[19] = post-emergence, Postemergence, scale 0 to 100 (0 no effect, 100 complete control), read-out: Nutsedge, Yellow plant response rating
[20] = pre-emergence, Preemergence, scale 0 to 100, 0 no effect, 100 complete control, read-out: Plant response rating, Nutsedge, Yellow
[21] = pre-emergence, Preemergence, scale 0 to 100, read-out: Plant response rating, Nutsedge, Yellow

Compound: CCOC(=O)c1nc(-c2ccc(Cl)cc2)nc(N)c1Cl [Compound 64, ethyl 6-amino-5-chloro-2-(4-chlorophenyl)-4-pyrimidinecarboxylate]
- pest or weed control at 31 g/ha ([1]; 31 g ai/ha, scale 0 to 100, 0 no effect, 100 complete control): 0%
- pest or weed control at 62 g/ha ([1]; 62 g ai/ha, scale 0 to 100, 0 no effect, 100 complete control): 0%
- pest or weed control at 125 g/ha ([1]; 125 g ai/ha, scale 0 to 100): 0%
- pest or weed control at 250 g/ha ([1]; 250 g ai/ha, scale 0 to 100): 75%
- pest or weed control at 31 g/ha ([2]; post-emergence, Postemergence, read-out: Plant response rating (scale of 0 to 100), Kochia): 80%
- pest or weed control at 62 g/ha [2, 7]: 85%
- pest or weed control at 125 g/ha [2, 7]: 90%
- pest or weed control at 250 g/ha ([2]; post-emergence, Postemergence, scale 0 to 100, read-out: Plant response rating, Kochia): 90%
- pest or weed control at 31 g/ha [2, 8]: 20%
- pest or weed control at 62 g/ha [2, 8]: 20%
- pest or weed control at 125 g/ha [2, 9]: 25%
- pest or weed control at 250 g/ha [2, 9]: 70%
- pest or weed control at 31 g/ha ([3]; post-emergence, Postemergence, read-out: Plant response rating (scale of 0 to 100), Lambsquarters): 80%
- pest or weed control at 62 g/ha [3, 10]: 90%
- pest or weed control at 125 g/ha [3, 10]: 90%
- pest or weed control at 250 g/ha ([3]; post-emergence, Postemergence, scale 0 to 100, read-out: Plant response rating, Lambsquarters): 90%
- pest or weed control at 31 g/ha [3, 11]: 70%
- pest or weed control at 62 g/ha [3, 11]: 95%
- pest or weed control at 125 g/ha [3, 12]: 95%
- pest or weed control at 250 g/ha [3, 12]: 100%
- pest or weed control at 31 g/ha ([4]; post-emergence, Postemergence, read-out: Plant response rating (scale of 0 to 100), Pigweed): 85%
- pest or weed control at 62 g/ha [4, 13]: 95%
- pest or weed control at 125 g/ha [4, 13]: 100%
- pest or weed control at 250 g/ha ([4]; post-emergence, Postemergence, scale 0 to 100, read-out: Plant response rating, Pigweed): 100%
- pest or weed control at 31 g/ha [4, 14]: 10%
- pest or weed control at 62 g/ha [4, 14]: 30%
- pest or weed control at 125 g/ha [4, 15]: 100%
- pest or weed control at 250 g/ha [4, 15]: 100%
- pest or weed control at 31 g/ha ([5]; post-emergence, Postemergence, read-out: Plant response rating (scale of 0 to 100), Velvetleaf): 80%
- pest or weed control at 62 g/ha [5, 16]: 85%
- pest or weed control at 125 g/ha [5, 16]: 90%
- pest or weed control at 250 g/ha ([5]; post-emergence, Postemergence, scale 0 to 100, read-out: Plant response rating, Velvetleaf): 95%
- pest or weed control at 31 g/ha [5, 17]: 0%
- pest or weed control at 62 g/ha [5, 17]: 0%
- pest or weed control at 125 g/ha [5, 18]: 0%
- pest or weed control at 250 g/ha [5, 18]: 0%
- pest or weed control at 31 g/ha ([6]; post-emergence, Postemergence, read-out: Plant response rating (scale of 0 to 100), Nutsedge, Yellow): 40%
- pest or weed control at 62 g/ha [6, 19]: 50%
- pest or weed control at 125 g/ha [6, 19]: 50%
- pest or weed control at 250 g/ha ([6]; post-emergence, Postemergence, scale 0 to 100, read-out: Plant response rating, Nutsedge, Yellow): 50%
- pest or weed control at 31 g/ha [6, 20]: 0%
- pest or weed control at 62 g/ha [6, 20]: 0%
- pest or weed control at 125 g/ha [6, 21]: 0%
- pest or weed control at 250 g/ha [6, 21]: 10%
